The structures appear in SMILES notation.

Our source for the EC50 values is patent publication US10953100B2, “Compounds and therapeutic uses thereof” (priority 2015, dated 2021).

The target of the assay is Anti-alpha galactosyl IgG antibody. Kind of assay: ELISA assay: streptavidin-captured biotin compound, binding of anti-alpha galactosyl IgG antibody. Set-up: species or system human. The note with it: geometric mean with standard error in brackets; streptavidin plate, anti-alpha galactosyl IgG 0.5 μg/mL; read-out: Concentration at half maximal binding. How it is done: Compounds containing F (representing a carbohydrate molecule capable of binding to a human anti-alpha-galactosyl antibody) and L (as biotin) were assayed for binding at both ends of the compound using an enzyme-linked immunosorbent assay (ELISA). Streptavidin-coated plates captured biotin to the surface of the plate and the binding of anti-alpha galactosyl antibodies to the alpha-galactosyl moiety was reported by a secondary antibody labelled with HRP (Horse Radish Peroxidase).
Compounds were titrated 1.5 fold from a top dose of 50 nM in phosphate buffered saline (PBS) (Sigma D8537)+0.025% DMSO (Dimethyl Sulphoxide, Sigma D8418). Streptavidin immobilizer 96-well plates (nunc 436014) were coated with 100 μL of compound at room temperature for 2 hours shaking at 500 rpm. Plates were washed with 2×200 μL PBS-T (PBS with 0.05% Tween 20 (Sigma P9416)) and 1×200 μL PBS-T with a 5 minute incubation shaking at room temperature, prior to being blocked for 1 hour at room temperature with 1% Bovine Serum Albumin (BSA, Sigma A2153) in PBS-T. After removing the blocking buffer, 50 μL of Anti-alpha galactosyl IgG antibody (Anti-alpha-galactosyl antibody was purified from human IVIG (Gammagard) by affinity purification using an alpha-galactosyl-HSA (Human Serum Albumin) sepharose column by Rockland Immunochemicals Inc.) at 0.5 μg/mL in PBS-T+1% BSA and incubated shaking at room temperature for 1 hour.
Plates were washed 2×200 μL PBS-T and 3×200 μL PBS-T with a 5 minute incubation, shaking at room temperature before the addition of 50 μL 1:5000 Goat Anti-Human IgG-HRP (horseradish peroxidase) conjugate (Abcam ab97175). The plates were incubated shaking at room temperature for 1 hour before a final wash of 2×200 μL PBS-T and 3×200 μl PBS-T with a 5 minute incubation shaking at room temperature. 100 μL TMB buffer (3,3′,5,5′-tetramethylbenzidine, a chromogenic substrate for horseradish peroxidase) (Pierce 34021) was added to the plate and allowed to develop for 5-10 minutes before the samples were quenched with 50 μL 2M sulfuric acid (Sigma 258105). The absorbance was read at 450 nm on an Envision plate reader (Perkin Elmer). Results from wells (duplicate) were averaged and the 50% binding affinity calculated.
The concentration at which half-maximal binding is achieved is reported as a geometric mean with standard error in brackets. The number of independent experiments is also reported. In order to achieve a signal both ends of the molecule are required to bind (biotin to streptavidin and alpha-galactosyl to anti-alpha galactosyl antibodies) simultaneously.
On the technique in general: In an ELISA, binding on a coated surface is turned into a signal by an enzyme label.

Take `CC(=O)NC1C(OCCCNC(=O)CCOCCOCCOCCOCCNC(=O)COc2cc(OCC(=O)NCCOCCOCCOCCOCCC(=O)NCCCOC3OC(CO)C(OC4OC(CO)C(O)C(OC5OC(CO)C(O)C(O)C5O)C4O)C(O)C3NC(C)=O)cc(-c3cc(OCC(=O)NCCOCCOCCOCCOCCC(=O)NCCCOC4OC(CO)C(OC5OC(CO)C(O)C(OC6OC(CO)C(O)C(O)C6O)C5O)C(O)C4NC(C)=O)cc(C(=O)NCCNC(=O)CCOCCOCCOCCOCCOCCOCCOCCOCCOCCOCCOCCOCCNC(=O)CCCCC4SCC5NC(=O)NC54)c3)c2)OC(CO)C(OC2OC(CO)C(O)C(OC3OC(CO)C(O)C(O)C3O)C2O)C1O` (stereo not drawn) [Example 54]: the EC50 came out at 22.8 nM.

Turning to `CC(=O)N[C@H]1[C@H](OCCCNC(=O)CCOCCOCCOCCOCCOCCOCCOCCOCCOCCOCCOCCOCCNC(=O)COc2cccc(C(=O)NCCNC(=O)CCOCCOCCOCCOCCOCCOCCOCCOCCOCCOCCOCCOCCNC(=O)CCCC[C@@H]3SC[C@@H]4NC(=O)N[C@@H]43)c2)O[C@H](CO)[C@@H](O[C@@H]2O[C@H](CO)[C@H](O)[C@H](O[C@H]3O[C@H](CO)[C@H](O)[C@H](O)[C@H]3O)[C@H]2O)[C@@H]1O` [Example 50], the EC50 was found to be 26.1 nM.

On to `CC(=O)NC1C(OCCCNC(=O)CCOCCOCCOCCOCCOCCOCCOCCOCCOCCOCCOCCOCCNC(=O)COc2cc(OCC(=O)NCCOCCOCCOCCOCCOCCOCCOCCOCCOCCOCCOCCOCCC(=O)NCCCOC3OC(CO)C(OC4OC(CO)C(O)C(OC5OC(CO)C(O)C(O)C5O)C4O)C(O)C3NC(C)=O)cc(-c3cc(OCC(=O)NCCOCCOCCOCCOCCOCCOCCOCCOCCOCCOCCOCCOCCC(=O)NCCCOC4OC(CO)C(OC5OC(CO)C(O)C(OC6OC(CO)C(O)C(O)C6O)C5O)C(O)C4NC(C)=O)cc(C(=O)NCCNC(=O)CCCCC4SCC5NC(=O)NC54)c3)c2)OC(CO)C(OC2OC(CO)C(O)C(OC3OC(CO)C(O)C(O)C3O)C2O)C1O` (stereo not drawn) [Example 56], for which the EC50 is 16.3 nM.

For `CC(=O)N[C@H]1[C@H](OCCCNC(=O)COc2ccc(-c3cc(OCC(=O)NCCCO[C@@H]4O[C@H](CO)[C@@H](O[C@@H]5O[C@H](CO)[C@H](O)[C@H](O[C@H]6O[C@H](CO)[C@H](O)[C@H](O)[C@H]6O)[C@H]5O)[C@H](O)[C@H]4NC(C)=O)cc(C(=O)NCCNC(=O)CCCC[C@@H]4SC[C@@H]5NC(=O)N[C@@H]54)c3)cc2)O[C@H](CO)[C@@H](O[C@@H]2O[C@H](CO)[C@H](O)[C@H](O[C@H]3O[C@H](CO)[C@H](O)[C@H](O)[C@H]3O)[C@H]2O)[C@@H]1O` [Example 7], the EC50 is 16 nM.

Take `CC(=O)NC1C(OCCCNC(=O)CCOCCOCCOCCOCCNC(=O)COc2cc(OCC(=O)NCCOCCOCCOCCOCCC(=O)NCCCOC3OC(CO)C(OC4OC(CO)C(O)C(OC5OC(CO)C(O)C(O)C5O)C4O)C(O)C3NC(C)=O)cc(-c3cc(OCC(=O)NCCOCCOCCOCCOCCC(=O)NCCCOC4OC(CO)C(OC5OC(CO)C(O)C(OC6OC(CO)C(O)C(O)C6O)C5O)C(O)C4NC(C)=O)cc(C(=O)NCCNC(=O)CCCCC4SCC5NC(=O)NC54)c3)c2)OC(CO)C(OC2OC(CO)C(O)C(OC3OC(CO)C(O)C(O)C3O)C2O)C1O` (stereo not drawn) [Example 18]: the EC50 was determined as 6.7 nM.

As to `CC(=O)N[C@H]1[C@H](OCCCNC(=O)COc2cc(-c3cccc(C(=O)NCCNC(=O)CCCC[C@@H]4SC[C@@H]5NC(=O)N[C@@H]54)c3)cc(OCC(=O)NCCCO[C@@H]3O[C@H](CO)[C@@H](O[C@@H]4O[C@H](CO)[C@H](O)[C@H](O[C@H]5O[C@H](CO)[C@H](O)[C@H](O)[C@H]5O)[C@H]4O)[C@H](O)[C@H]3NC(C)=O)c2OCC(=O)NCCCO[C@@H]2O[C@H](CO)[C@@H](O[C@@H]3O[C@H](CO)[C@H](O)[C@H](O[C@H]4O[C@H](CO)[C@H](O)[C@H](O)[C@H]4O)[C@H]3O)[C@H](O)[C@H]2NC(C)=O)O[C@H](CO)[C@@H](O[C@@H]2O[C@H](CO)[C@H](O)[C@H](O[C@H]3O[C@H](CO)[C@H](O)[C@H](O)[C@H]3O)[C@H]2O)[C@@H]1O` [Example 55], the EC50 turned out to be 27.4 nM.
